Data: patent US12668586B2, “AhR inhibitor, use thereof, and preparation method therefor” (CHONGQING PHARSCIN INNOBIO CO., LTD., priority 2021, dated 2026)
pIC50: −log10 of the molar value.

Biological target: T1, AhR (Homo sapiens, UniProt P35869)
T1 sequence (P35869 11-848): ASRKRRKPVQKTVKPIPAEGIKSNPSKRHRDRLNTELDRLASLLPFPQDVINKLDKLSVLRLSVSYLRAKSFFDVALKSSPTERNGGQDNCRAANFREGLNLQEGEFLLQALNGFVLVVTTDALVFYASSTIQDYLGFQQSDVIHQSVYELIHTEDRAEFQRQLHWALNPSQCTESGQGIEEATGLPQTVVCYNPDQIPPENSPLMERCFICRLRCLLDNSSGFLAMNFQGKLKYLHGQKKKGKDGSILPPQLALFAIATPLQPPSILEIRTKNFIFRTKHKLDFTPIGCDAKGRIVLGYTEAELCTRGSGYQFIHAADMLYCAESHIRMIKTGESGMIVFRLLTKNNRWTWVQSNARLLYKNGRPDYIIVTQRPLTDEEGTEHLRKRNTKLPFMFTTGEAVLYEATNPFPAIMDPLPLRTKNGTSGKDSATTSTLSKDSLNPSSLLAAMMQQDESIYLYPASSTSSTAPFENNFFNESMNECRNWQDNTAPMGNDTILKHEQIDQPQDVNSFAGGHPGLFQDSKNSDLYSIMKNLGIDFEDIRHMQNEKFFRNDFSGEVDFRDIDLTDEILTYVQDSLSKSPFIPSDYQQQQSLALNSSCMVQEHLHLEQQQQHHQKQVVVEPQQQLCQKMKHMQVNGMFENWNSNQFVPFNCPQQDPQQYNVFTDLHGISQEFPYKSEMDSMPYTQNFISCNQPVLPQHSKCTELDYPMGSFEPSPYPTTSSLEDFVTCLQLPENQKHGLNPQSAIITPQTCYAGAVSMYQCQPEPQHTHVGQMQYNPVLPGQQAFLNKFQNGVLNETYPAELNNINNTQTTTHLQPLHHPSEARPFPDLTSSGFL
Test: AhR inhibitory activity experiment, in vitro assay 1: HepG2-Lucia AhR cells, Lucia luciferase reporter (QUANTI-Luc)
Format: cell-based
Details: 24 hours incubation at 37° C., Lucia luciferase in supernatant, read-out: AhR inhibitory activity C50
Experimental: Test Example: AhR Inhibitory Activity Experiment
When QUANTI-Luc™ (InvivoGen Company) testing reagents are used, AhR gene signaling pathways can be studied by monitoring the activity of Lucia luciferase in the cell culture supernatant.
In Vitro Assay 1: Assay on Inhibitory Activity in Human Cell Lines
Adherent cell layers of HepG2-Lucia™ AhR cells in a logarithmic growth phase were washed with PBS, and then the cells were isolated with trypsin. The isolated cells were centrifuged at 1000 RPM for 5 minutes, the supernatant was removed, and the cells were re-suspended with a test medium by 1.25×10^5 cells/ml.
20,000 cells were added to each well of a 96-well plate, and the 96-well plate was placed in a CO2 incubator to incubate the cells at 37° C. for 24 hours in the absence (negative control) or presence of test compounds with gradient increasing concentrations (typical dilutions: 169 pmol/L, 0.5 nmol/L, 1.5 nmol/L; 4.6 nmol/L, 13.7 nmol/L, 41 nmol/L, 123 nmol/L, 370 nmol/L, 1.1 μmol/L, 3.3 μmol/L and 10 μmol/L, in triplicate).
The 20 μl/well cell supernatant was transferred to a black 96-well plate, a 50 μL/well QUANTI-Luc™ solution was added, and the activity of Lucia luciferase was measured on a multifunctional ELISA reader Spark 10 M (Tecan Company) through a QUANTI-Luc™ luciferase assay system.
Experimental results are shown in Table 1, wherein for IC50 values, “++++” represents IC50<0.05 μM; “+++” represents IC50 between 0.05 μM and 0.2 μM; “++” represents IC50 between 0.2 μM and 1.0 μM; and “+” represents IC50>1.0 μM.

| pIC50 | SMILES |
| --- | --- |
| > 7.30 | O=C(N[C@H]1CCc2ncccc21)c1cc(-c2ccc(Cl)cc2)nc(-c2ccnc(F)c2)n1 [Compound 62, (S)-6-(4-chlorophenyl)-N-((S)-6,7-dihydro-5H-cyclopentano[B]pyridin-5-yl)-2-(2-fluoro-4-pyridine)pyrimidine-4-formamide] |
| < 6.00 | COc1ccc(-c2nc(C(=O)N[C@@H](C)c3ccnc(F)c3)cc(-c3ccc(Cl)cc3)n2)cc1 [Compound 50, (S)-6-(4-chlorophenyl)-N-(1-(2-fluoro-4-pyridine)ethyl)-2-(p-methoxyphenyl)pyrimidine-4-formamide] |
| < 6.00 | C[C@H](NC(=O)c1cc(-c2ccc(Cl)cc2)nc(-c2cnn(C3CC3)c2)n1)c1ccnc(F)c1 [Compound 39, (S)-6-(4-chlorophenyl)-N-(1-(2-fluoro-4-pyridine)ethyl)-2-(1-cyclopropylpyrazol-4-yl)pyrimidine-4-formamide] |
| 6.70 to 7.30 | C[C@H](NC(=O)c1cc(-c2ccc(C#N)cc2)nc(-c2cnn(C)c2)n1)c1ccnc(F)c1 [Compound 58, (S)-6-(4-cyanophenyl)-N-(1-(2-fluoro-4-pyridine)ethyl)-2-(1-methyl-1H-pyrazol-4-yl)pyrimidine-4-formamide] |
| > 7.30 | CNC(=O)c1ccc([C@H](C)NC(=O)c2cc(-c3ccc(Cl)cc3)nc(-c3cnn(C)c3)n2)cc1F [Compound 52, (S)-6-(4-chlorophenyl)-N-(1-(3-fluoro-4-(methylaminoformyl)phenyl)ethyl)-2-(1-methyl-1H-pyrazol-4-yl)pyrimidine-4-formamide] |
| 6.70 to 7.30 | Cn1cc(-c2nc(C(=O)N[C@H]3CCc4cc(F)c(F)cc43)cc(-c3ccc(Cl)cc3)n2)cn1 [Compound 20, (S)-6-(4-chlorophenyl)-N-((S)-(5,6-difluoro-2,3-dihydro)-(−)-1-yl-2-indene)-2-(1-methyl-1H-pyrazol-4-yl)pyrimidine-4-formamide] |
| > 7.30 | C[C@H](NC(=O)c1cc(-c2ccc(Cl)cc2)nc(-c2cnn(C)c2)n1)c1cnn(C)c1 [Compound 14, (S)-6-(4-chlorophenyl)-N-(1-(1-methyl-1H-pyrazol-4-yl)ethyl)-2-(1-methyl-1H-pyrazol-4-yl)pyrimidine-4-formamide] |
| > 7.30 | C[C@H](NC(=O)c1cc(-c2ccc(Cl)cc2)nc(-c2cnn(C)c2)n1)c1ccnc(Cl)c1 [Compound 9, (S)-6-(4-chlorophenyl)-N-(1-(2-chloro-4-pyridine)ethyl)-2-(1-methyl-1H-pyrazol-4-yl)pyrimidine-4-formamide] |
| > 7.30 | C[C@H](NC(=O)c1cc(-c2ccc(Cl)cc2)nc(-c2cnn(C)c2)n1)c1cccc(F)c1 [Compound 26, (S)-6-(4-chlorophenyl)-N-(1-(3-fluorophenyl)ethyl)-2-(1-methyl-1H-pyrazol-4-yl)pyrimidine-4-formamide] |
| > 7.30 | C[C@H](NC(=O)c1cc(-c2ccc(Cl)cc2)nc(-c2cnn(C)c2)n1)c1ccc(F)c(Cl)c1 [Compound 31, (S)-6-(4-chlorophenyl)-N-(1-(3-chloro-4-fluorophenyl)ethyl)-2-(1-methyl-1H-pyrazol-4-yl)pyrimidine-4-formamide] |
| 6.70 to 7.30 | C[C@H](NC(=O)c1cc(-c2ccc(F)cc2)nc(-c2cnn(C)c2)n1)c1ccnc(F)c1 [Compound 47, (S)-6-(4-fluorophenyl)-N-(1-(2-fluoro-4-pyridine)ethyl)-2-(1-methylpyrazol-4-yl)pyrimidine-4-formamide] |
| 6.70 to 7.30 | Cn1cc(-c2nc(C(=O)N[C@H]3c4ccccc4C[C@H]3O)cc(-c3ccc(Cl)cc3)n2)cn1 [Compound 3, (S)-6-(4-chlorophenyl)-N-((1S, 2R)-(−)-1-yl-2-indanol)-2-(1-methyl-1H-pyrazol-4-yl)pyrimidine-4-formamide] |
| > 7.30 | Cn1cc(-c2nc(C(=O)NC3(C)CCN(CC(N)=O)CC3)cc(-c3ccc(Cl)cc3)n2)cn1 [Compound 45, 6-(4-chlorophenyl)-N-(2-(4-yl-4-methylpiperidin-1-yl)acetamide)-2-(1-methyl-1H-pyrazol-4-yl)pyrimidine-4-formamide] |
| < 6.00 | C[C@H](NC(=O)c1cc(-c2ccc(Cl)cc2)nc(-c2ccc(C#N)cc2)n1)c1ccnc(F)c1 [Compound 60, (S)-6-(4-chlorophenyl)-N-(1-(2-fluoro-4-pyridine)ethyl)-2-(p-cyanophenyl)pyrimidine-4-formamide] |
| > 7.30 | C[C@H](NC(=O)c1cc(-c2ccc(OC(F)(F)F)cc2)nc(-c2cnn(C)c2)n1)c1ccnc(F)c1 [Compound 34, (S)-6-(4-trifluoromethoxyphenyl)-N-(1-(2-fluoro-4-pyridine)ethyl)-2-(1-methyl-1H-pyrazol-4-yl)pyrimidine-4-formamide] |
| > 7.30 | COc1ccc([C@H](C)NC(=O)c2cc(-c3ccc(Cl)cc3)nc(-c3cnn(C)c3)n2)cc1Cl [Compound 29, (S)-6-(4-chlorophenyl)-N-(1-(3-chloro-4-methoxyphenyl)ethyl)-2-(1-methyl-1H-pyrazol-4-yl)pyrimidine-4-formamide] |
| > 7.30 | O=C(N[C@H]1CCc2ncccc21)c1cc(-c2ccc(C(F)(F)F)cc2)nc(-c2cccnc2)n1 [Compound 55, (S)-6-(4-trifluoromethylphenyl)-N-((S)-6,7-dihydro-5H-cyclopentano[B]pyridin-5-yl)-2-(pyridin-3-yl)pyrimidine-4-formamide] |
| > 7.30 | Cn1cc(-c2nc(C(=O)NC3(c4ccc(F)c(F)c4)CC3)cc(-c3ccc(Cl)cc3)n2)cn1 [Compound 7, (S)-6-(4-chlorophenyl)-N-(1-(3,4-difluorophenyl)cyclopropyl)-2-(1-methyl-1H-pyrazol-4-yl)pyrimidine-4-formamide] |
| > 7.30 | C[C@H](NC(=O)c1cc(-c2ccc(Cl)cc2)nc(-c2cnn(C)c2)n1)c1ccn2ncnc2c1 [Compound 17] |
| < 6.00 | Cn1cc(-c2nc(C(=O)NCCc3c[nH]c4ccccc34)cc(-c3ccc(Cl)cc3)n2)cn1 [Compound 6, (S)-6-(4-chlorophenyl)-N-(2-(1H-indol-3-yl)ethyl)-2-(1-methyl-1H-pyrazol-4-yl)pyrimidine-4-formamide] |
| < 6.00 | C[C@H](NC(=O)c1cc(-c2ccc(Cl)cc2)nc(-c2cnn(C)c2)n1)c1ccc(O)c(F)c1 [Compound 11, (S)-6-(4-chlorophenyl)-N-(1-(3-fluoro-4-hydroxyphenyl)ethyl)-2-(1-methyl-1H-pyrazol-4-yl)pyrimidine-4-formamide] |
| < 6.00 | Cn1cc(-c2nc(C(=O)NCC3(c4ccc(Cl)cc4)CC3)cc(-c3ccc(Cl)cc3)n2)cn1 [Compound 22, (S)-6-(4-chlorophenyl)-N-(1-[1-(4-chlorophenyl)cyclopropyl]methyl)-2-(1-methyl-1H-pyrazol-4-yl)pyrimidine-4-formamide] |
| > 7.30 | C[C@H](NC(=O)c1cc(-c2ccc(C(F)(F)F)cc2)nc(-c2cnn(C)c2)n1)c1ccc(F)c(F)c1 [Compound 32, (S)-6-(4-trifluoromethylphenyl)-N-(1-(3,4-difluorophenyl)ethyl)-2-(1-methyl-1H-pyrazol-4-yl)pyrimidine-4-formamide] |
| > 7.30 | CC[C@H](NC(=O)c1cc(-c2ccc(Cl)cc2)nc(-c2cnn(C)c2)n1)c1ccc(F)cc1 [Compound 18, (S)-6-(4-chlorophenyl)-N-(1-(4-fluorophenyl)n-propyl)-2-(1-methyl-1H-pyrazol-4-yl)pyrimidine-4-formamide] |
| > 7.30 | C[C@H](NC(=O)c1cc(-c2ccc(Cl)cc2)nc(-c2ccnc(N)c2)n1)c1ccnc(F)c1 [Compound 37, (S)-6-(4-chlorophenyl)-N-(1-(2-fluoro-4-pyridine)ethyl)-2-(2-aminopyridin-4-yl)pyrimidine-4-formamide] |
| 6.70 to 7.30 | C[C@H](NC(=O)c1cc(-c2ccc(Cl)cc2)nc(-c2cnn(C)c2)n1)c1ccc2c(c1)OCO2 [Compound 16, (S)-6-(4-chlorophenyl)-N-(1-[5(2H-1,3-benzodioxomethylene)]ethyl)-2-(1-methyl-1H-pyrazol-4-yl)pyrimidine-4-formamide] |
